Source: patent publication US9968619B2, “Method of treating triple-negative breast cancer using thienotriazolodiazepine compounds” (ONCOETHIX GMBH, priority 2014, dated 2018)

Columns and labels:
mTOR = mTOR (Homo sapiens, UniProt P42345); conditions: cited from earlier work
MDA-MB-231 = conditions: cited from earlier work
HCC1937 = conditions: cited from earlier work
[1] = system: MDA-MB-231 nude mice-derived xenografts; assay: MDA-MB-231 xenografts in nude mice; assay type: in vivo; conditions: Compound (1-1) 50 mg/kg BID po; everolimus 2 mg/kg 3 time a week ip; 4 weeks treatment
Description: In vivo assays were performed in 8-week-old female MDA-MB-231 nude mice-derived xenografts. 10×10^6 cells were injected, when tumor volume reached 100 mm^3, mice were randomized to 4 groups (n=9): 1) vehicle; 2) 50 mg/kg Compound (1-1) (BID, po); 3) 2 mg/kg of everolimus (3 time a week, ip); 4) combination Compound (1-1) and everolimus; 4 weeks treatment.
Symbols with • indicate significant differences between treatment vs. vehicle-treated mice (p<0.05). * indicates a significant difference in the tumor mass between the combination treated animals and the two single agent groups (*p<0.05, **p<0.01 and ***p<0.001). Results represent the mean±SEM (during the treatment period, n=9). Variation of animal body weight during treatment is illustrated in FIG. 18B. […] The T/C ratio was 39% after 10 days of combination treatment, with an optimal value of 21% on day 23. Compound (1-1) can be used for the treatment of TNBC, either alone or in combination with mTOR inhibitors.

FKBP12 = FKBP12 (Homo sapiens, UniProt P62942); conditions: cited from earlier work
Sequence of FKBP12 (P62942 whole entry, species assumed): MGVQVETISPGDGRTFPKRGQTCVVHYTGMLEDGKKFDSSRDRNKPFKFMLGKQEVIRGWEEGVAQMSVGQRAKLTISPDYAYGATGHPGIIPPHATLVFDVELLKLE

PI3K/mTOR = conditions: cited from earlier work
[2] = system: Akt phosphorylation on S473; conditions: cited from earlier work
[3] = system: Akt phosphorylation on T308; conditions: cited from earlier work
p110β (PI3Kβ) = p110β (PI3Kβ) (Homo sapiens, UniProt P42338); conditions: cited from earlier work
Sequence of p110β (PI3Kβ) (P42338 whole entry, species assumed): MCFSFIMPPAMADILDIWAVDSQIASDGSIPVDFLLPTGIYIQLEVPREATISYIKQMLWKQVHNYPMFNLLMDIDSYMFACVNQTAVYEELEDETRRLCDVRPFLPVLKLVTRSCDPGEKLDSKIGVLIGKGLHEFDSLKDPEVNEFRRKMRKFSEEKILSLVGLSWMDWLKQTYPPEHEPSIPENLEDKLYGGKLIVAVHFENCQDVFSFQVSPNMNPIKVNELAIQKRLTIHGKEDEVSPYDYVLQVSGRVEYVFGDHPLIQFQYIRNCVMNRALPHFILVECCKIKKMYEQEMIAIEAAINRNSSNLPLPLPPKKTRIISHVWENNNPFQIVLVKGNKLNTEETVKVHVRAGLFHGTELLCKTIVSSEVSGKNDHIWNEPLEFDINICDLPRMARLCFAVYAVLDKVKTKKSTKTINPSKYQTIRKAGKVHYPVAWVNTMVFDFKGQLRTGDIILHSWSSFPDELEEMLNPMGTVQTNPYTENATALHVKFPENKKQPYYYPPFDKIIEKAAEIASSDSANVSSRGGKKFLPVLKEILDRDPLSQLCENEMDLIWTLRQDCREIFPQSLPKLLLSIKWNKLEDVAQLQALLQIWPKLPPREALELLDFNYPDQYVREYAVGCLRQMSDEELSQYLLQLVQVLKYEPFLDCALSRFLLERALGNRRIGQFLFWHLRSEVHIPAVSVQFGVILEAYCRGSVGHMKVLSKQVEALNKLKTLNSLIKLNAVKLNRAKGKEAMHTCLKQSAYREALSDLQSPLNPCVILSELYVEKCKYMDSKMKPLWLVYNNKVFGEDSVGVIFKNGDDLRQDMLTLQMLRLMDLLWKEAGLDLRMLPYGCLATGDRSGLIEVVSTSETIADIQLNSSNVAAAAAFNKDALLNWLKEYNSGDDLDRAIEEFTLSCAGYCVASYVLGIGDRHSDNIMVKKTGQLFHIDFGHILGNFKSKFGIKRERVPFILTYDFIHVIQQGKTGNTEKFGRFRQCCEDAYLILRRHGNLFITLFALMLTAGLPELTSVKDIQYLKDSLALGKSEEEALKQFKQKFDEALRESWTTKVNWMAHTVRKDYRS
Sequence of p110β (PI3Kβ) (P27986 whole entry partner, species assumed): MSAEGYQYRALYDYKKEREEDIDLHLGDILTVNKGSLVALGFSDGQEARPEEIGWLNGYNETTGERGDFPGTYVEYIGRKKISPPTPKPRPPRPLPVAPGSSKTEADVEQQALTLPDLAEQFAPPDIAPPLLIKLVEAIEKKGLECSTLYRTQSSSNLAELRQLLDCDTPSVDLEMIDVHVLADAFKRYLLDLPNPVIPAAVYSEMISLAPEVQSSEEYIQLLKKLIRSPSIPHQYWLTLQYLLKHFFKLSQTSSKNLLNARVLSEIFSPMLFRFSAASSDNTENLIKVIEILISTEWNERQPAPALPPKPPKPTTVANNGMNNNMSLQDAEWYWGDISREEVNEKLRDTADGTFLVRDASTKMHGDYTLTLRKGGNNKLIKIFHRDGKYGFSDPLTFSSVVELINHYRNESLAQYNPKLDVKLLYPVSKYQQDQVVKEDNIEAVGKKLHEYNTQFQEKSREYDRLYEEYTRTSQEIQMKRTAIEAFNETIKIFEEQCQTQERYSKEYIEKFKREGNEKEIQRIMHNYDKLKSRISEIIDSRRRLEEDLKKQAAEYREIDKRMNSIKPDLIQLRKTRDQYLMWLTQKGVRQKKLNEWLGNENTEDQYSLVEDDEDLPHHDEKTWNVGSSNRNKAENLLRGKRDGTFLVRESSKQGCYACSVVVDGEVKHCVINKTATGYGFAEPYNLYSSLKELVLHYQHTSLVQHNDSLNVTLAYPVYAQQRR

p110γ (PI3Kγ) = p110γ (PI3Kγ) (Homo sapiens, UniProt P48736); conditions: cited from earlier work
Sequence of p110γ (PI3Kγ) (P48736 whole entry, species assumed): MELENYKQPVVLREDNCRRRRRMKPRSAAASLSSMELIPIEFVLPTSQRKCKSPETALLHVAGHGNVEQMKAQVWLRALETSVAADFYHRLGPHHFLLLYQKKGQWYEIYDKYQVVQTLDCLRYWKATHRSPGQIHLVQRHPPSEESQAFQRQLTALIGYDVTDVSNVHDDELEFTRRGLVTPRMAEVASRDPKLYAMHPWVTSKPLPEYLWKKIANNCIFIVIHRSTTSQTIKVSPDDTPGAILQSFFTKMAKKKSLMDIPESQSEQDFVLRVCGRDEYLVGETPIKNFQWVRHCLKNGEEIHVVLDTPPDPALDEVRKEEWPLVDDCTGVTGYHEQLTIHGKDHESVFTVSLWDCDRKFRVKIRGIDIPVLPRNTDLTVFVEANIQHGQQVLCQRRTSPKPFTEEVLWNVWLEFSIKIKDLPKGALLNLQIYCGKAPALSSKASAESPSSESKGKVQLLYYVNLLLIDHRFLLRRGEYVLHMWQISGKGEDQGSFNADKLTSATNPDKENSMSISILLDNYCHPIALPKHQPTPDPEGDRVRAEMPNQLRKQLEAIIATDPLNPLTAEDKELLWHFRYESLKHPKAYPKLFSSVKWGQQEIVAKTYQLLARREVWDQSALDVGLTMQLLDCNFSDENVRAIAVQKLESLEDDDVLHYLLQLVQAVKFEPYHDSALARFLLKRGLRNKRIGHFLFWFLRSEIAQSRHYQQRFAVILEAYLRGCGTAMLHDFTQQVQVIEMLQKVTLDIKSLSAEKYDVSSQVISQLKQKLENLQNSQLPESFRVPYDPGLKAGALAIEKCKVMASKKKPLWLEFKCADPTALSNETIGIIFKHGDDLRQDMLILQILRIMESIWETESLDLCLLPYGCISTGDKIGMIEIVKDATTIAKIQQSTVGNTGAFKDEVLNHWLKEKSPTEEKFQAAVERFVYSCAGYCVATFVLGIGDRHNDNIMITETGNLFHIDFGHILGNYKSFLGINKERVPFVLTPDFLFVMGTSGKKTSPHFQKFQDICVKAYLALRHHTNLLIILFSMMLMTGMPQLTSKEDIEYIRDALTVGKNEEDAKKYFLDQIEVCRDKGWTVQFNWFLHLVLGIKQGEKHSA

CO[C@H]1CC2CC[C@@H](C)[C@@](O)(O2)C(=O)C(=O)N2CCCC[C@H]2C(=O)O[C@H]([C@H](C)C[C@@H]2CCC(OP(C)(C)=O)[C@H](OC)C2)CC(=O)[C@H](C)/C=C(\C)[C@@H](O)[C@@H](OC)C(=O)[C@H](C)C[C@H](C)/C=C/C=C/C=C/1C (some centres unmarked) [Deforolimus, 42-(Dimethylphosphinate) rapamycin]
IC50 (mTOR): 0.2 nM

CC(=O)O[C@@]12CO[C@@H]1C[C@H](O)[C@@]1(C)C(=O)[C@H](O)C3=C(C)[C@@H](OC(=O)[C@H](O)[C@@H](NC(=O)OC(C)(C)C)c4ccccc4)C[C@@](O)([C@@H](OC(=O)c4ccccc4)[C@H]21)C3(C)C [Docetaxel]
IC50 (MDA-MB-231): 3 nM | IC50 (HCC1937): 7.2 nM

CO[C@H]1C[C@@H]2CC[C@@H](C)[C@@](O)(O2)C(=O)C(=O)N2CCCC[C@H]2C(=O)O[C@H]([C@H](C)C[C@@H]2CC[C@@H](OCCO)[C@H](OC)C2)CC(=O)[C@H](C)/C=C(\C)[C@@H](O)[C@@H](OC)C(=O)[C@H](C)C[C@H](C)/C=C/C=C/C=C/1C [Everolimus, reference compound]
tumor mass with respect to vehicle-treated mice [1]: not active | IC50 (FKBP12): 1.6 to 2.4 nM

COc1ccc(-c2ccc3ncc4c(c3c2)n(-c2ccc(N3CCNCC3)c(C(F)(F)F)c2)c(=O)n4C)cn1 [NVP-BGT226]
IC50 (PI3K/mTOR): 1 nM

COc1ccc(-c2cc3c(C)nc(N)nc3n([C@H]3CC[C@H](OCCO)CC3)c2=O)cn1 [PF-04691502]
IC50 [2]: 3.8 nM | IC50 [3]: 7.5 nM

COc1cc(Nc2nc3ccccc3nc2NS(=O)(=O)c2ccc(NC(=O)c3ccc(C)c(OC)c3)cc2)cc(OC)c1 [XL765]
IC50 (mTOR): 157 nM

GSK2126458
Ki (p110β (PI3Kβ)): 0.13 nM | Ki (p110γ (PI3Kγ)): 0.024 nM
